US20100003217A1, “Compounds and Pharmaceutical Compositions for the Treatment of Viral Infections” (priority 2008, published 2010)
Several values for one entry are separate records, joined by “and”; a condition that tells them apart may be missing. Equal values may be shown once.

Tested on: rat primary hepatocytes
Assay: Metabolic disposition of [^14C]-Compound 1 and [^14C]-2′-C-methyl guanosine in rat primary hepatocytes (incubation medium, cellular extracts, nucleotide levels)
Assay type: in vitro ADME, Sprague Dawley rat
Protocol: Primary hepatocytes: Freshly isolated cells from animal and human liver were obtained in suspension on ice. Cells were pelleted by centrifugation at 70-75×g (rat) or 95-90×g (monkey and human) and resuspended at 0.8 million cells per mL of platting medium (William's E supplemented with 5% FBS, 0.5% penicillin-streptomycin, 1% L-glutamine, 4 μg/mL insulin and 1 μM dexamethasone). Multi-well collagen I-coated plates (rat tail collagen type I; 12- or 6-well) were then seeded by addition of 1 mL (12-well; 0.8 million cells/well) or 2 mL (6-well; 1.6 million cells/well) of cell suspension. The plates were gently shaken to evenly distribute the cells and placed in an incubator at 37° C. for approximately 4 to 6 hours to allow cells to attach. Once cells were attached, the platting medium was removed and replaced with hepatocyte culture medium (William's E supplemented with penicillin-streptomycin, 1% L-glutamine, 1% insulin-transferrin-selenium and 0.1 μM dexamethasone). Cells were left overnight in an incubator at 37° C. to acclimatize to culture and the medium.
Hepatocyte incubations with radiolabeled Compound 1 and 2′-C-methyl guanosine, both labeled in the C-8 position of the guanine moiety, were conducted at a final volume of 2.0 mL hepatocyte culture medium/well ([…]). Culture medium from overnight incubation of cells was removed and replaced with fresh medium, pre-warmed to 37° C., containing 1 or 10 μM [^14C]-Compound 1 ([…]) or [^14C]-2′-C-methyl guanosine (127 DPM/μmol) from a stock solution in DMSO (final DMSO concentration was 0.1%) or 50% ethanol (final ethanol concentration was 0.2%). After 1, 4, 8 and 24 hours, 0.5-1.0 mL of incubation medium was removed and stored at −20° C. until analysis (described below). The remaining medium was discarded and cell monolayers were carefully washed two times with ice-cold PBS. Following the last wash, all PBS was carefully removed and 1.0 mL of extraction solution (ice-cold 70% methanol) added. Cells were scrapped off and suspended in the extraction solution, transferred to 2 mL polypropylene microfuge tubes and intracellular contents extracted overnight at −20° C.
Preliminary identification of putative metabolites was conducted by comparing the retention time of observed metabolites in incubation medium and cellular extracts with retention times obtained with chemically synthesized standards using the chromatography conditions described below. Further identification of 2′-C-methyl guanosine nucleotides (mono-, di- and triphosphate) was carried out by incubating cellular extract samples with alkaline phosphatase (10 units for 60 min at 37° C.) and comparing the HPLC retention times of the resulting nucleosides with that of authentic 2′-C-methyl guanosine.
Cellular extracts were prepared by centrifugation at 16,000 RCF using an Eppendorf microcentrifuge (Eppendorf, Model 5415D) for 10 min to remove cellular debris. An aliquot of 5-10 μL of the supernatant was added to 5 mL of EcoLite™ (MP, Irvine, Calif.) liquid scintillation cocktail and radioactivity measured by liquid scintillation counting (LSC) using a Beckman Coulter LS6500 multipurpose liquid scintillation counter (Beckman Instruments, Fullerton, Calif.). The remaining sample was then dried using a Labconco refrigerated centrivap concentrator (Labconco, Kansas City, Mo.). Dry extracts were reconstituted in 120 μL of HPLC-grade water and centrifuged at 16,000 RCF using an Eppendorf microcentrifuge for 10 min. Prior to HPLC analysis (described below), radioactivity of the concentrated extracts was measured by LSC using 5 μL aliquots. Extraction recovery was then determined by comparing total radioactivity in extracts before and after drying. The remaining extract was then analyzed by HPLC with online radioactivity detection using a Flow Scintillation Analyzer Radiomatic™ 515TR. Radioactivity in the separated components was quantified by integrating the peaks using Flo-One™ Software (Perkin Elmer Life Sciences). […]

[1] = rat hepatocytes (Rs458), 1 μM [^14C]-Compound 1, 24 h
[2] = rat hepatocytes Rs448, 10 μM [^14C]-2′-C-methyl guanosine, 1 h
[3] = rat hepatocytes Rs448, 10 μM [^14C]-2′-C-methyl guanosine, 4 h
[4] = rat hepatocytes Rs448, 10 μM [^14C]-2′-C-methyl guanosine, 8 h
[5] = rat hepatocytes Rs448, 10 μM [^14C]-2′-C-methyl guanosine, 24 h
[6] = rat hepatocytes Rs458, 1 μM [^14C]-2′-C-methyl guanosine, 1 h
[7] = rat hepatocytes Rs458, 1 μM [^14C]-2′-C-methyl guanosine, 8 h
[8] = rat hepatocytes Rs458, 1 μM [^14C]-2′-C-methyl guanosine, 24 h
[9] = rat hepatocytes Rs458, 10 μM [^14C]-2′-C-methyl guanosine, 1 h
[10] = rat hepatocytes Rs458, 10 μM [^14C]-2′-C-methyl guanosine, 4 h
[11] = rat hepatocytes Rs458, 10 μM [^14C]-2′-C-methyl guanosine, 8 h
[12] = rat hepatocytes Rs458, 10 μM [^14C]-2′-C-methyl guanosine, 24 h

2′-C-methyl guanosine nucleotide levels in cellular extracts [1]: 11.0 pmol/million cells
metabolites observed in cellular extracts (% of total radioactivity) [1]: 6.68%
metabolites observed in medium (% of total radioactivity) [1]: no Compound 5 was detected and BLD
metabolites observed in medium (% of total radioactivity) (rat hepatocytes (lots Rs448, Rs458), 10 μM [^14C]-Compound 1, 0 h): BLD
metabolites observed in medium (% of total radioactivity) (rat hepatocytes (lots Rs448, Rs458), 10 μM [^14C]-Compound 1, 4 h): 5.3% and 3.6%
metabolites observed in medium (% of total radioactivity) (rat hepatocytes (lots Rs448, Rs458), 10 μM [^14C]-Compound 1, 8 h): 6.1% and 3.3%
metabolites observed in medium (% of total radioactivity) (rat hepatocytes (lots Rs448, Rs458), 10 μM [^14C]-Compound 1, 24 h): 2.9% and 2.6%
2′-C-methyl guanosine nucleotide levels in cellular extracts (rat hepatocytes Rs448, 10 μM [^14C]-2′-C-methyl guanosine, 0 h): 0 pmol/million cells
2′-C-methyl guanosine nucleotide levels in cellular extracts [5]: 25.0 pmol/million cells
Major metabolites observed in cellular extracts (% of total radioactivity) [5]: 2.56 % of total radioactivity
2′-C-methyl guanosine nucleotide levels in cellular extracts (rat hepatocytes Rs448, 10 μM [^14C]-Compound 1, 0 h): 0 pmol/million cells
2′-C-methyl guanosine nucleotide levels in cellular extracts (rat hepatocytes Rs448, 10 μM [^14C]-Compound 1, 1 h): 43.0 pmol/million cells
2′-C-methyl guanosine nucleotide levels in cellular extracts (rat hepatocytes Rs448, 10 μM [^14C]-Compound 1, 4 h): 81.0 pmol/million cells
2′-C-methyl guanosine nucleotide levels in cellular extracts (rat hepatocytes Rs448, 10 μM [^14C]-Compound 1, 8 h): 79.0 pmol/million cells
2′-C-methyl guanosine nucleotide levels in cellular extracts (rat hepatocytes Rs448, 10 μM [^14C]-Compound 1, 24 h): 39.0 pmol/million cells
2′-C-methyl guanosine nucleotide levels in cellular extracts [8]: 5.40 pmol/million cells
Major metabolites observed in cellular extracts (% of total radioactivity) [8]: 6.83 % of total radioactivity
2′-C-methyl guanosine nucleotide levels in cellular extracts (rat hepatocytes Rs458, 10 μM [^14C]-2′-C-methyl guanosine, 0 h): 0 pmol/million cells
2′-C-methyl guanosine nucleotide levels in cellular extracts [12]: 88.0 pmol/million cells
Major metabolites observed in cellular extracts (% of total radioactivity) [12]: 9.39 % of total radioactivity
2′-C-methyl guanosine nucleotide levels in cellular extracts (rat hepatocytes Rs458, 10 μM [^14C]-Compound 1, 0 h): 0 pmol/million cells
2′-C-methyl guanosine nucleotide levels in cellular extracts (rat hepatocytes Rs458, 10 μM [^14C]-Compound 1, 1 h): 28.0 pmol/million cells
2′-C-methyl guanosine nucleotide levels in cellular extracts (rat hepatocytes Rs458, 10 μM [^14C]-Compound 1, 4 h): 88.0 pmol/million cells
2′-C-methyl guanosine nucleotide levels in cellular extracts (rat hepatocytes Rs458, 10 μM [^14C]-Compound 1, 8 h): 86.0 pmol/million cells
2′-C-methyl guanosine nucleotide levels in cellular extracts (rat hepatocytes Rs458, 10 μM [^14C]-Compound 1, 24 h): 181 pmol/million cells
Structure (SMILES): C[C@@]1(O)[C@H](O)[C@@H](COP(=O)(O)O)O[C@H]1n1cnc2c(=O)[nH]c(N)nc21 [Compound 5, [(2R)-2-methyl-β-D-ribofuranosyl]guanine 5′-monophosphate]
2′-C-methyl guanosine nucleotide levels in cellular extracts [2]: BLD^a (BLD = below limit of detection (0.02 pmol/million cells))
Major metabolites observed in cellular extracts (% of total radioactivity) [2]: BLD^a (BLD = below limit of detection (30 DPM))
2′-C-methyl guanosine nucleotide levels in cellular extracts [3]: BLD (BLD = below limit of detection (0.02 pmol/million cells))
Major metabolites observed in cellular extracts (% of total radioactivity) [3]: BLD (BLD = below limit of detection (30 DPM))
2′-C-methyl guanosine nucleotide levels in cellular extracts [4]: BLD (BLD = below limit of detection (0.02 pmol/million cells))
Major metabolites observed in cellular extracts (% of total radioactivity) [4]: BLD (BLD = below limit of detection (30 DPM))
2′-C-methyl guanosine nucleotide levels in cellular extracts (rat hepatocytes Rs458, 1 μM [^14C]-2′-C-methyl guanosine, 0 h): BLD (BLD = below limit of detection (0.02 pmol/million cells))
2′-C-methyl guanosine nucleotide levels in cellular extracts [6]: BLD (BLD = below limit of detection (0.02 pmol/million cells))
Major metabolites observed in cellular extracts (% of total radioactivity) [6]: BLD^a (BLD = below limit of detection (30 DPM))
2′-C-methyl guanosine nucleotide levels in cellular extracts [7]: BLD (BLD = below limit of detection (0.02 pmol/million cells))
Major metabolites observed in cellular extracts (% of total radioactivity) [7]: BLD (BLD = below limit of detection (30 DPM))
2′-C-methyl guanosine nucleotide levels in cellular extracts [9]: BLD (BLD = below limit of detection (0.02 pmol/million cells))
Major metabolites observed in cellular extracts (% of total radioactivity) [9]: BLD^a (BLD = below limit of detection (30 DPM))
2′-C-methyl guanosine nucleotide levels in cellular extracts [10]: BLD (BLD = below limit of detection (0.02 pmol/million cells))
Major metabolites observed in cellular extracts (% of total radioactivity) [10]: BLD (BLD = below limit of detection (30 DPM))
2′-C-methyl guanosine nucleotide levels in cellular extracts [11]: BLD (BLD = below limit of detection (0.02 pmol/million cells))
Major metabolites observed in cellular extracts (% of total radioactivity) [11]: BLD (BLD = below limit of detection (30 DPM))
